Test results: ChEMBL document CHEMBL1201862, “PubChem BioAssay data set” (2004)
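Grown in 96-well plates, cells were treated for 48 hours with each compound at five concentrations. Insufficient inhibition: endpoint recorded as highest concentration tested. GI50 = concentration required for 50% inhibition of growth.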 Active and inactive are the calls of the source. No stated cut-off is given here; in the data, active = GI50 up to about 1.1 µM and inactive = higher.

Columns and labels:
Test in all cases: NCI-60 cell line screen, 48 h
OVCAR-8 = tested on: OVCAR-8
SK-MEL-2 = tested on: SK-MEL-2
MDA-MB-435 = tested on: MDA-MB-435
OVCAR-3 = tested on: OVCAR-3
HT-29 = tested on: HT-29
PC-3 = tested on: PC-3
UACC-62 = tested on: UACC-62
COLO 205 = tested on: COLO 205
KM12 = tested on: KM12
NCI/ADR-RES = tested on: NCI/ADR-RES
OVCAR-4 = tested on: OVCAR-4
SF-539 = tested on: SF-539
Hs-578T = tested on: Hs-578T
IGROV-1 = tested on: IGROV-1
SR = tested on: SR
A498 = tested on: A498
SK-OV-3 = tested on: SK-OV-3
HL-60 = tested on: HL-60
LOX IMVI = tested on: LOX IMVI
SK-MEL-28 = tested on: SK-MEL-28

SMILES	GI50 (OVCAR-8)	GI50 (SK-MEL-2)	GI50 (MDA-MB-435)	GI50 (OVCAR-3)	GI50 (HT-29)	GI50 (PC-3)	GI50 (UACC-62)	GI50 (COLO 205)	GI50 (KM12)	GI50 (NCI/ADR-RES)	GI50 (OVCAR-4)	GI50 (SF-539)	GI50 (Hs-578T)	GI50 (IGROV-1)	GI50 (SR)	GI50 (A498)	GI50 (SK-OV-3)	GI50 (HL-60)	GI50 (LOX IMVI)	GI50 (SK-MEL-28)
Cc1ccc(/C(O)=C/c2nc3ccccc3oc2=O)cc1	38.4 µM (inactive)	> 100 µM (inactive)	25.6 µM (inactive)	51.2 µM (inactive)	> 100 µM (inactive)	50.1 µM (inactive)	37.7 µM (inactive)	87.7 µM (inactive)	> 100 µM (inactive)	25.5 µM (inactive)	> 100 µM (inactive)	> 100 µM (inactive)	46.9 µM (inactive)	> 100 µM (inactive)	26.9 µM (inactive)	78.3 µM (inactive)	–	–	–	–
C/C(=N\N=C(/S)N1CC2CCC(CC2)C1)c1cccc[n+]1[O-]	6.44 µM (inactive)	15.3 µM (inactive)	28.5 µM (inactive)	0.044 µM (active)	1.84 µM (inactive)	11.7 µM (inactive)	7.31 µM (inactive)	3.66 µM (inactive)	4.56 µM (inactive)	3.09 µM (inactive)	2.46 µM (inactive)	5.85 µM (inactive)	18.4 µM (inactive)	17.9 µM (inactive)	–	18.3 µM (inactive)	35.8 µM (inactive)	0.23 µM (active)	5.02 µM (inactive)	5.2 µM (inactive)
COc1cc2c(cc1OC)-c1c(oc3cc(OC4OC(CO)C(O)C(O)C4O)c(OC)cc3c1=O)C(O)O2 (stereo not given)	> 100 µM (inactive)	> 100 µM (inactive)	> 100 µM (inactive)	> 100 µM (inactive)	> 100 µM (inactive)	> 100 µM (inactive)	> 100 µM (inactive)	> 100 µM (inactive)	> 100 µM (inactive)	> 100 µM (inactive)	> 100 µM (inactive)	> 100 µM (inactive)	> 100 µM (inactive)	> 100 µM (inactive)	–	> 100 µM (inactive)	> 100 µM (inactive)	> 100 µM (inactive)	> 100 µM (inactive)	> 100 µM (inactive)
O=C1/C(=C/c2cccs2)NC(=S)N1CN1CCCCC1	41 µM (inactive)	> 100 µM (inactive)	85.1 µM (inactive)	> 100 µM (inactive)	39.9 µM (inactive)	98.2 µM (inactive)	55.8 µM (inactive)	17.4 µM (inactive)	> 100 µM (inactive)	> 100 µM (inactive)	20.7 µM (inactive)	–	> 100 µM (inactive)	67.1 µM (inactive)	88.9 µM (inactive)	> 100 µM (inactive)	> 100 µM (inactive)	–	33 µM (inactive)	> 100 µM (inactive)
Cc1ccc(/N=C2\C(=N/c3ccc(C)cc3)N(c3ccc(C)cc3)C(=S)N2C(=O)c2ccccc2)cc1	> 10 µM (inactive)	> 100 µM (inactive)	> 100 µM (inactive)	> 100 µM (inactive)	> 100 µM (inactive)	> 100 µM (inactive)	> 100 µM (inactive)	> 100 µM (inactive)	> 100 µM (inactive)	> 100 µM (inactive)	–	> 100 µM (inactive)	> 100 µM (inactive)	> 100 µM (inactive)	> 100 µM (inactive)	–	> 100 µM (inactive)	–	–	> 100 µM (inactive)
Cc1cc(C)c2ccc(N3CCNCC3)nc2n1	> 100 µM (inactive)	> 100 µM (inactive)	> 100 µM (inactive)	> 100 µM (inactive)	57.7 µM (inactive)	> 100 µM (inactive)	> 100 µM (inactive)	64.6 µM (inactive)	> 100 µM (inactive)	> 100 µM (inactive)	> 100 µM (inactive)	> 100 µM (inactive)	> 100 µM (inactive)	> 100 µM (inactive)	> 100 µM (inactive)	–	> 100 µM (inactive)	55.7 µM (inactive)	> 100 µM (inactive)	> 100 µM (inactive)
COC(=O)[C@H](C)NC(=O)[C@H](NS(=O)(=O)c1nc2ccccc2s1)c1ccccc1	16.7 µM (inactive)	11.3 µM (inactive)	41 µM (inactive)	–	39.4 µM (inactive)	38.8 µM (inactive)	14.9 µM (inactive)	13.1 µM (inactive)	14 µM (inactive)	30.3 µM (inactive)	26.2 µM (inactive)	15.6 µM (inactive)	8.2 µM (inactive)	49.3 µM (inactive)	15.6 µM (inactive)	–	33.2 µM (inactive)	39.3 µM (inactive)	15.6 µM (inactive)	17 µM (inactive)
O=C1CC(C(O)C(O)C(O)CO)CC(=O)N1 (stereo not given)	> 100 µM (inactive)	–	> 100 µM (inactive)	> 100 µM (inactive)	> 100 µM (inactive)	> 100 µM (inactive)	–	> 100 µM (inactive)	> 100 µM (inactive)	> 100 µM (inactive)	> 100 µM (inactive)	> 100 µM (inactive)	> 100 µM (inactive)	> 100 µM (inactive)	> 100 µM (inactive)	> 100 µM (inactive)	–	> 100 µM (inactive)	> 100 µM (inactive)	> 100 µM (inactive)
COC(=O)C1(Cc2ccccc2)Cc2cc3c(cc2C1O)CCC3 (stereo not given)	25.6 µM (inactive)	–	16.3 µM (inactive)	16.4 µM (inactive)	13.8 µM (inactive)	19 µM (inactive)	16.9 µM (inactive)	21.3 µM (inactive)	21.3 µM (inactive)	18.4 µM (inactive)	15 µM (inactive)	18.2 µM (inactive)	13.8 µM (inactive)	15.8 µM (inactive)	26.7 µM (inactive)	19.7 µM (inactive)	17 µM (inactive)	24.5 µM (inactive)	19.1 µM (inactive)	16.1 µM (inactive)
c1ccc(Cc2cc(-c3ccccc3)[nH]n2)cc1	13.5 µM (inactive)	16.5 µM (inactive)	10.3 µM (inactive)	0.0465 µM (active)	11.2 µM (inactive)	15.8 µM (inactive)	14.4 µM (inactive)	17.4 µM (inactive)	14 µM (inactive)	21.8 µM (inactive)	–	–	15.3 µM (inactive)	18.1 µM (inactive)	18.4 µM (inactive)	–	32.4 µM (inactive)	16.9 µM (inactive)	15.1 µM (inactive)	11.6 µM (inactive)
Cc1ccc(SCC(CF)OC(C)n2cnc3c(Cl)nc(N)nc32)cc1 (stereo not given)	69.7 µM (inactive)	69.8 µM (inactive)	78.3 µM (inactive)	85.7 µM (inactive)	> 100 µM (inactive)	90.6 µM (inactive)	> 100 µM (inactive)	> 100 µM (inactive)	> 100 µM (inactive)	25.1 µM (inactive)	16 µM (inactive)	> 100 µM (inactive)	> 100 µM (inactive)	> 100 µM (inactive)	40 µM (inactive)	–	37.2 µM (inactive)	22.7 µM (inactive)	70.8 µM (inactive)	> 100 µM (inactive)
COc1ccc(-c2nc3ncccn3c2-c2ccc([S+](C)[O-])cc2)cc1 (stereo not given)	> 100 µM (inactive)	> 100 µM (inactive)	15.1 µM (inactive)	> 100 µM (inactive)	> 100 µM (inactive)	> 100 µM (inactive)	54.7 µM (inactive)	> 100 µM (inactive)	80.9 µM (inactive)	> 100 µM (inactive)	> 100 µM (inactive)	> 100 µM (inactive)	> 100 µM (inactive)	> 100 µM (inactive)	50.7 µM (inactive)	–	45.3 µM (inactive)	> 100 µM (inactive)	> 100 µM (inactive)	> 100 µM (inactive)
NC(Cc1c[nH]c2cc([N+](=O)[O-])ccc12)C(=O)O (stereo not given)	> 100 µM (inactive)	> 100 µM (inactive)	> 100 µM (inactive)	> 100 µM (inactive)	> 100 µM (inactive)	> 100 µM (inactive)	> 100 µM (inactive)	> 100 µM (inactive)	> 100 µM (inactive)	> 100 µM (inactive)	> 100 µM (inactive)	> 100 µM (inactive)	> 100 µM (inactive)	57.4 µM (inactive)	> 100 µM (inactive)	> 100 µM (inactive)	> 100 µM (inactive)	–	> 100 µM (inactive)	> 100 µM (inactive)
Cc1ccc(-c2cc(O)c3nc4ccccc4n3c2)cc1	54.3 µM (inactive)	–	5.27 µM (inactive)	> 100 µM (inactive)	> 100 µM (inactive)	> 100 µM (inactive)	> 100 µM (inactive)	> 100 µM (inactive)	> 100 µM (inactive)	> 100 µM (inactive)	> 100 µM (inactive)	> 100 µM (inactive)	> 100 µM (inactive)	> 100 µM (inactive)	> 100 µM (inactive)	> 100 µM (inactive)	> 100 µM (inactive)	> 100 µM (inactive)	75 µM (inactive)	> 100 µM (inactive)
CN(C)Cc1cc(C(=O)/C=C/c2ccc(Cl)c(Cl)c2)cc(CN(C)C)c1O	1.68 µM (inactive)	–	3.26 µM (inactive)	1.59 µM (inactive)	1.24 µM (inactive)	1.96 µM (inactive)	–	1.29 µM (inactive)	1.82 µM (inactive)	2.24 µM (inactive)	4.61 µM (inactive)	2.77 µM (inactive)	3.04 µM (inactive)	3.37 µM (inactive)	–	3.17 µM (inactive)	–	0.826 µM (active)	0.716 µM (active)	2.57 µM (inactive)
